Patent publication US6492333B1, “Treatment of myeloma bone disease with proteasomal and NF-κB activity inhibitors” (Osteoscreen, Inc., priority 1999, dated 2002)
Where a SMILES comes first, the peptide text is derived from it. The star is where a group is joined. Cbz = O=C(OCc1ccccc1)*; OtBu = CC(C)(C)O*

Key:
[1] = system: U266BL cells; assay: Viability of myeloma cells by trypan blue dye-exclusion assay (U266BL); type: cell-based, human; conditions: 24 hours
Procedure: (§1) In another experiment, the direct effect of the proteasomal inhibitor PSI and other NF-kB inhibitors on the viability in human myeloma cells and 5TGM-1 cells in vitro was evaluated.
(§2) 1×10^6 human myeloma (IM9 and U266BL) cells or 5TGM-1 cells were plated out in the presence and/or absence of PSI and other NF-κB inhibitors. After 24 hours, the viability of the myeloma cells was assessed by the trypan blue dye-exclusion assay. These compounds, at low (submicromolar) concentrations, markedly decrease the viability of both human and murine myeloma cells in culture.

[2] = system: human myeloma IM-9 cells; assay: Viability of myeloma cells by trypan blue dye-exclusion assay (IM-9); type: cell-based; conditions: 24 hours
Procedure: as §1, §2

[3] = system: 5TGM1 cells; assay: Viability of myeloma cells by trypan blue dye-exclusion assay (5TGM-1); type: cell-based, murine; conditions: 100 nM, 24 hours
Procedure: as §1, §2

[4] = system: 5TGM-1 cells; assay: Serum tumor marker IgG2b in mice inoculated intravenously with 5TGM-1 cells; type: in vivo, C57BL/KwLaRij mice; conditions: PSI 5 mg/kg/day subcutaneously; sera on days 0, 7, 14 and 18
Procedure: Eight (8) C57BL/KwLaRij mice were each injected with 1×10^6 5TGM-1 cells through the tail vein. They were then randomized into two groups, one group dosed with PSI (5 mg/kg/day subcutaneously) and the other group (untreated control) received only vehicle. Sera were obtained at the start (day 0) and on days 7, 14 and 18 followed by assay for IgG2b.

[5] = system: 5TGM-1 cultured myeloma cells; assay: Hind-limb paralysis after intravenous 5TGM-1 myeloma cell inoculation; type: in vivo, C57BL/KaLwRij mice; conditions: PSI 5 mg/kg/day subcutaneously for 28 days; untreated mice all paralysed by at least day 27
Procedure: Ten (10) C57BL/KaLwRij mice were inoculated intravenously with 1×10^6 5TGM-1 cultured myeloma cells. When untreated, the mice invariably develop hind-limb paralysis after 26-30 days.
One group of five (5) mice were injected with PSI (5 mg/kg/day) subcutaneously over their flank portion for 28 days and the other group received only vehicle. […] All of the untreated mice had developed hind-limb paralysis by at least day 27. In contrast, none of the PSI-treated group developed paraplegia before at least day 33.

[6] = system: 5TGM-1 cultured myeloma cells; assay: PSI injected into subcutaneous 5TGM-1 myeloma tumors in mice; type: in vivo, C57BL/KaLwRij mice
Procedure: Nine (9) C57BL/KaLwRij mice were inoculated with 0.5×10^6 5TGM-1 cultured myeloma cells which were injected subcutaneously over the flank.
One group had PSI injected directly into the tumors (˜5 mg/kg/day) and the other group had only vehicle injected into the tumors.

[7] = relative to MG-132, MG-115 and MG-341

S=C(S)N1CCCC1 [PDTC, 1-pyrrolidine carbothiotic acid]
viability ([1]; 0.1 μM): less than 40%

O=C(NC1=CC(=O)c2ccccc2C1=O)c1ccccc1 [PPM-18]
effect on viability ([2]; concentration not given): relatively ineffective | effect on viability as compared to control ([1]; concentration not given): does not appear to affect viability appreciatively

CC[C@H](C)[C@H](NC(=O)OCc1ccccc1)C(=O)N[C@@H](CCC(=O)OC(C)(C)C)C(=O)N[C@@H](C)C(=O)N[C@H](C=O)CC(C)C [PSI, N-carbobenzoyl-Ile-Glu-(OtBu)-Ala-Leu-CHO] (Cbz-IE(OtBu)AL-aldehyde)
viability [3]: ~0% | viability ([2]; 0.01 μM): marked diminution in viability | tumor marker IgG2b in sera [4]: markedly reduced | time at which hind-limb paralysis (paraplegia) developed [5]: ≥ 33 days | viability ([1]; 0.01 μM): less than 20% | survival and signs of tumor ([6]; 4 months after treatment, PSI ~5 mg/kg/day intratumoral): alive and well with no signs of tumor | size of the tumors ([6]; PSI ~5 mg/kg/day injected directly into subcutaneous tumors, treatment commenced on day 35): decreased markedly | health of treated mice ([6]; up until 3 months after tumor inoculation, even though treatment was discontinued, PSI ~5 mg/kg/day intratumoral): remained healthy

C=C(C)[C@]12C[C@@H](C)[C@@]34O[C@](Cc5ccccc5)(O[C@@H]1[C@@H]3C=C(COC(=O)Cc1ccc(O)c(OC)c1)C[C@]1(O)C(=O)C(C)=C[C@@H]41)O2 [resiniferatoxin]
activity in the ABA assay [7]: less active
